Data set [1] can be described thus: Inhibition of HIV1 integrase/LEDGF-75 (unknown origin) interaction.
The subject of data set [2] is Human immunodeficiency virus 1. The experiment in a line: Antiviral activity against HIV-1 harboring integrase Y143R mutant relative to wild type HIV1. It counts as functional.
Data set [3] has as its system Human immunodeficiency virus 1. The experiment in a line: Antiviral activity against HIV-1 harboring integrase E92Q mutant relative to wild type HIV1. It counts as functional.
Data set [4] deals with Human immunodeficiency virus 1. Kind of data set: Antiviral activity against HIV-1 harboring integrase G118R mutant relative to wild type HIV1. It counts as functional.
Data set [5] deals with Human immunodeficiency virus 1. Kind of data set: Antiviral activity against HIV-1 harboring integrase E138K mutant relative to wild type HIV1. It counts as functional.
Data set [6] has as its system Human immunodeficiency virus 1. The experiment in a line: Antiviral activity against HIV-1 harboring integrase E92Q/N155H double mutant relative to wild type HIV1. It counts as functional.
In data set [7] the test system is Human immunodeficiency virus 1. Kind of data set: Antiviral activity against HIV-1 harboring integrase Q148K mutant relative to wild type HIV1. It counts as functional.
In data set [8] the test system is Human immunodeficiency virus 1. The experiment in a line: Antiviral activity against HIV-1 harboring integrase R263K mutant relative to wild type HIV1. It counts as functional.
The test system of data set [9] is Human immunodeficiency virus.
The test system of data set [10] is Human immunodeficiency virus 1. The experiment in a line: Antiviral activity against HIV-1 harboring integrase G140S/Q148K double mutant relative to wild type HIV1. It counts as functional.
In data set [11] the test system is Human immunodeficiency virus 1. Kind of data set: Antiviral activity against HIV-1 harboring integrase G140S mutant relative to wild type HIV1. It counts as functional.
Data set [12] relates to Human immunodeficiency virus 1. Kind of data set: Antiviral activity against HIV-1 harboring integrase Q148R mutant relative to wild type HIV1. It counts as functional.
Data set [13] concerns Human immunodeficiency virus 1. The experiment in a line: Antiviral activity against HIV-1 harboring integrase N155H mutant relative to wild type HIV1. It counts as functional.
The test system of data set [14] is Human immunodeficiency virus 1. The experiment in a line: Antiviral activity against HIV-1 harboring integrase G140S/Q148H double mutant relative to wild type HIV1. It counts as functional.
For data set [15], the system named is Human immunodeficiency virus 1. The experiment in a line: Antiviral activity against HIV-1 harboring integrase Q148H mutant relative to wild type HIV1. It counts as functional.
Data set [16] deals with Human immunodeficiency virus 1. The experiment in a line: Antiviral activity against HIV-1 harboring integrase Y143C mutant relative to wild type HIV1. It counts as functional.
Data set [17] deals with Human immunodeficiency virus 1. The experiment in a line: Antiviral activity against HIV-1 harboring integrase T66R mutant relative to wild type HIV1. It counts as functional.
Data set [18] addresses T1, Human immunodeficiency virus type 1 integrase (Human immunodeficiency virus 1, UniProt Q7ZJM1). The experiment in a line: Inhibition of HIV-1 integrase 3'-end processing activity.
The target of data set [19] is T1, Human immunodeficiency virus type 1 integrase. The experiment in a line: Inhibition of HIV1 integrase strand transfer activity.
Data set [20] can be described thus: Inhibition of HIV-1 His6-tagged integrase/Flag-tagged LEDGF-75 (unknown origin) interaction by AlphaScreen assay.
In data set [21] the test system is Human immunodeficiency virus 1. Kind of data set: Antiviral activity against HIV-1 NL4-3 infected in human HuT78 cells assessed as inhibition of viral p24 production incubated for 4 days followed by compound washout measured after 48 hrs. It counts as functional, organism-based. To be noted: Human immunodeficiency virus 1, NL4-3, HuT78.
For data set [22], the system named is Human immunodeficiency virus 1. Kind of data set: Antiviral activity against HIV-1 3B infected in human C8166 cells assessed as inhibition of viral replication by MTT assay. It counts as functional, organism-based. The following applies: Human immunodeficiency virus 1, 3B.
The target in data set [23] is T1, Human immunodeficiency virus type 1 integrase. The experiment in a line: Inhibition of HIV-1 integrase binding to viral DNA by SPR-based competitive assay.
The test system of data set [24] is Human immunodeficiency virus 1. The experiment in a line: Antiviral activity against HIV-1 harboring integrase T97A/Y143R double mutant relative to wild type HIV1. It counts as functional.
Data set [25] concerns Human immunodeficiency virus 1. Kind of data set: Antiviral activity against HIV-1 harboring integrase E138K/Q148H double mutant relative to wild type HIV1. It counts as functional.
Data set [26] has as its system Human immunodeficiency virus 1. The experiment in a line: Antiviral activity against HIV-1 harboring integrase T97A mutant relative to wild type HIV1. It counts as functional.
Data set [27] concerns Human immunodeficiency virus 1. Kind of data set: Antiviral activity against HIV-1 harboring integrase T97A/Y143C double mutant relative to wild type HIV1. It counts as functional.
The test system of data set [28] is Human immunodeficiency virus 1. The experiment in a line: Antiviral activity against HIV-1 harboring integrase E138K/Q148K double mutant relative to wild type HIV1. It counts as functional.
Data set [29] is described as follows: Selectivity index, ratio of CC50 for human MT4 cells to EC50 for HIV-1 infected in human MT4 cells. It counts as toxicity, cell-based. The following applies: read-out: Ratio CC50/EC50.
The subject of data set [30] is Human immunodeficiency virus 1. Kind of data set: Antiviral activity against HIV-1 infected in human MT4 cells assessed as reduction of virus-induced cytopathic effect by MTT assay. The following applies: Human immunodeficiency virus 1, MT4. It counts as functional, organism-based.
Data set [31] has as its system Human immunodeficiency virus 1. The experiment in a line: Antiviral activity against HIV-1 by cell-based assay. It counts as functional, organism-based.
The nature of data set [32]: Tmax in dog. It counts as ADME, organism-based, Canis lupus familiaris. To be noted: in vivo.
For data set [33], the system named is Human immunodeficiency virus 1. The experiment in a line: Antiviral activity against HIV-1 harboring integrase T66I mutant relative to wild type HIV1. It counts as functional.
For data set [34], the system named is Human immunodeficiency virus 1. Kind of data set: Antiviral activity against HIV-1 harboring integrase T66I/R263K double mutant relative to wild type HIV1. It counts as functional.
Data set [35] is described as follows: Oral bioavailability in rat. It counts as ADME, organism-based. The following applies: in vivo.
A short description of data set [36]: Tmax in rat. The following applies: in vivo. It counts as ADME, organism-based.
The test system of data set [37] is Human immunodeficiency virus 1. The experiment in a line: Antiviral activity against HIV1 3B infected in human MT4 cells assessed as inhibition of viral infection after 5 days by MTT assay in presence of human serum. To be noted: Human immunodeficiency virus 1, 3B, MT4, 120 h. It counts as functional.
The target in data set [38] is T1, Human immunodeficiency virus type 1 integrase. Kind of data set: Inhibition of HIV-1 integrase 3'-end processing activity preincubated for 30 mins followed by 5'-end 32P-labeled linear double-stranded oligonucleotide addition.
The target is the same in data set [39]. The experiment in a line: Inhibition of HIV-1 integrase strand transfer activity preincubated for 30 mins followed by 5'-end 32P-labeled linear double-stranded oligonucleotide addition.
Data set [40] deals with Human immunodeficiency virus 1. Kind of data set: Antiviral activity against HIV-1 harboring integrase G140C mutant relative to wild type HIV1. It counts as functional.
The test system of data set [41] is Human immunodeficiency virus 1. The experiment in a line: Antiviral activity against HIV-1 harboring integrase E92V mutant relative to wild type HIV1. It counts as functional.
Data set [42] can be described thus: Inhibition of HIV-1 recombinant His6-tagged integrase/human LEDGF-75 interaction expressed in Escherichia coli BL21(DE3) by SDS PAGE analysis.

The structures appear in SMILES notation. ≈ marks a conversion by molar mass, not a printed value.

In [1], `CC(C)c1c(C(=O)Nc2ccccc2)c(-c2ccccc2)c(-c2ccc(F)cc2)n1CC[C@@H](O)C[C@@H](O)CC(=O)O` [ATORVASTATIN] came in with an IC50 of 8.9 µM.
On to `CCN1C[C@H](C)n2c(c(O)c3c(=O)n(Cc4ccc(F)c(Cl)c4)nc(C(=O)NC)c32)C1=O`, for which the “fold change (FC)” value is 2 in data set [2]; less than 2 in data set [3]; 2 in data set [4]; 2 in data set [5]; 2 in [6]; less than 2 in [7]. Besides, the “fold change (FC)” value in data set [8] is listed as less than 2; in data set [10], 2; in data set [11] it was 2; in data set [12], 2; in data set [13], 2; in data set [14], 10. Also, the “fold change (FC)” value in [15] is listed as 2; in data set [16], 2; in data set [17] it was less than 2. The compound further returned a T1/2 in [9] of 1920 min.
For the compound `COC(=O)[C@H](COC(=O)/C=C/c1ccc(OC(C)=O)c(OC(C)=O)c1)NC(=O)/C=C/c1ccc(OC(C)=O)c(OC(C)=O)c1`, the IC50 in data set [18] and in data set [19] was 3 µM in each case.
For the compound `C=CCN(Cc1ccccc1C(=O)NC(c1ccc(OC)cc1)c1ccc(OC)cc1)Cc1ccc2c(c1C(=O)O)OCO2`, in data set [20], 8.1 µM corresponded to half-maximal inhibition (IC50). Further, the EC50 in data set [21] stood at 29 µM.
`O=C(CN1CCCC1)Nc1ccc(Cc2ccc(NC(=O)CN3CCCC3)cc2)cc1`: the EC50 in [22] is 17.1 µg/mL (≈ 40.5 µM). This compound also had an IC50 in data set [23] of 7.29 µM.
In the case of `C[C@@H]1CCO[C@H]2Cn3cc(C(=O)NCc4ccc(F)cc4F)c(=O)c(O)c3C(=O)N12` [DOLUTEGRAVIR], the “fold change (FC)” value was less than 2 in data set [2]; 2 in [3]; 2 in data set [4]; less than 2 in data set [24]; 2 in data set [25]; 2 in data set [5]. The “fold change (FC)” value in [6] was 2; in data set [7], less than 2; in data set [8], 10; in [10] it was less than 2; in data set [11] it was less than 2; in data set [12], less than 2. Further, the “fold change (FC)” value in [13] is less than 2; in data set [26] it was less than 2; in data set [14], less than 2; in data set [27], less than 2; in data set [28] it was more than 100; in [15] it was less than 2. Besides, the “fold change (FC)” value in [16] and in data set [17] was less than 2 in each case.
For the compound `Cc1ccc(-c2c(C(OC(C)(C)C)C(=O)O)cnc3sc(C)cc23)cc1` (configuration not stated), the selectivity ratio in data set [29] was 1390. The EC50 in data set [30] was 0.069 µM.
`CCOc1cc(/C=C2\SC(=O)N(CC(=O)c3ccccc3)C2=O)c(Br)cc1OCc1ccc(C(=O)O)cc1`: the EC50 in data set [31] was 23.8 µg/mL.
In the case of `COc1cc2c(cc1Cc1cccc(Cl)c1F)c(=O)c(C(=O)O)cn2[C@H](CO)C(C)C`, the “fold change (FC)” value is less than 2 in data set [2]; 20 in data set [3]; less than 2 in data set [4]; less than 2 in [24]; 10 in data set [25]; more than 10 in [33]. Moreover, the “fold change (FC)” value in data set [5] was 2; in [6] it was more than 100; in data set [7], 50; in data set [8], 2; in data set [34] it was more than 100; in data set [10], more than 100. The “fold change (FC)” value in [11] is listed as 2; in [12], 50; in [13], 20; in [26], 2; in data set [14] it was more than 100; in [27], less than 2. Besides, the “fold change (FC)” value in data set [28] was more than 100; in [15] it was 2; in [16] it was less than 2; in data set [17], 50. For the same compound, the time to peak (Tmax) in [32] and in [36] was 30 min each time. Also, in data set [35], the bioavailability stood at 30%. Besides, the EC90 in data set [37] stood at 0.0017 µM.
Regarding `O=C(c1ccccc1)c1ccc(C(c2c(O)c3ccccc3oc2=O)c2c(O)c3ccccc3oc2=O)cc1`, the IC50 in data set [38] was found to be 27 µM; in [39], 18 µM.
Take `Cc1nnc(C(=O)NC(C)(C)c2nc(C(=O)NCc3ccc(F)cc3)c(O)c(=O)n2C)o1`: the “fold change (FC)” value in data set [2] was 20; in [3], 2; in data set [4], 2; in [24] it was more than 100; in [25], less than 2; in data set [5], 2. Moreover, the “fold change (FC)” value is more than 5 in data set [40]; 50 in data set [6]; 50 in data set [7]; less than 2 in data set [8]; less than 2 in data set [34]; more than 100 in [10]. The “fold change (FC)” value in data set [11] is listed as 2; in [12], 20; in [13] it was 20; in data set [26] it was 2; in [14], more than 100; in [41], more than 5. Besides, the “fold change (FC)” value is recorded as more than 100 in [27]; 10 in data set [28]; 10 in [15]; 2 in data set [16]; 2 in [17]. For the same compound, the T1/2 in data set [9] was more than 438 min.
On to `CCCCc1ncc(/C=C(\Cc2cccs2)C(=O)O)n1Cc1ccc(C(=O)O)cc1` [EPROSARTAN], for which 36.9 µM corresponded to half-maximal inhibition in data set [1] (IC50).
Regarding `CCCC(C(=O)O)c1c(C)nc2ccc(Cl)cc2c1-c1ccccc1` (configuration not stated), the EC50 in [31] stood at 2.35 µM. Also, the IC50 in data set [42] is 1.37 µM.
For `C[C@@](Cc1ccc(O)c(O)c1)(NN)C(=O)O` [CARBIDOPA], half-maximal inhibition in data set [1] (IC50) was put at 6.54 µM.

Source of the values: ChEMBL document CHEMBL3124888, “Inhibiting the HIV integration process: past, present, and the future” (J Med Chem, 2014).
